The record followed here is paper PMC6710338, “Turning a Collagenesis-Inducing Peptide Into a Potent Antibacterial and Antibiofilm Agent Against Multidrug-Resistant Gram-Negative Bacteria” (Frontiers in Microbiology, 2019).

Converted amounts (≈) assume the structure as drawn. “And” between values parts separate entries of the source, which are not always exact repeats. Equal values may be shown once. Read-outs that look alike come from different tables or passages of the source. Peptide text beside a SMILES is read from it.

Assay [1] has as its system MDR clinical isolates of E. coli (Ec1, Ec2, EC001, EC002, EC003). Format: cell-based, Escherichia coli. To be noted: MHB2. As to the method: The minimum inhibitory concentration (MIC) of synthetic peptides was determined using the broth microdilution method in cation-adjusted Mueller-Hinton broth (MHB2 – Sigma-Aldrich, St. Louis, MO, United States), according to the recommendations of the Clinical and Laboratory Standards Institute ([CLSI, 2012]), against four reference strains, namely, P. aeruginosa ATCC 27853, E. coli ATCC 25922, S. aureus ATCC 25923 and Enterococcus faecalis ATCC 29212. MIC values of peptide 3.1-PP4 were also determined against MDR clinical isolates of P. aeruginosa (PA002, PA004, Pa3, Pa4), E. coli (Ec1, Ec2, EC001, EC002, EC003) and K. pneumoniae (KP004, KP007, KP010). The peptides were tested in the concentration range of 1–1024 μg/mL. The minimum bactericidal concentration (MBC) was determined as previously reported ([Bessa et al., 2018]).
In view of the above results, peptide conjugate 3.1-PP4 was selected for further investigation of its activity against MDR isolates of three Gram-negative bacterial species, namely, P. aeruginosa (four isolates), E. coli (five isolates), and K. pneumoniae (four isolates), whose antimicrobial resistance patterns are provided in the Supplementary Table S1. MDR isolates of K. pneumoniae were included in this analysis given (i) the high prevalence of K. pneumoniae in HAI ([Zheng et al., 2017]), (ii) that K. pneumoniae isolates used are carbanepem-resistant strains of an Enterobacteriaceae species, meaning that they are class 1 priority pathogens for the research and development of new antibiotics according to the WHO ([WHO, 2017]), and (iii) K. pneumoniae bacteria are usually better biofilm producers than the other Enterobacteriaceae species used, E. coli ([Reisner et al., 2006]). MIC values obtained are shown in Table 3, and confirm peptide’s 3.1-PP4 potent action against Gram-negative bacteria, including MDR isolates, with a selectivity index (SI), i.e., ratio of IC50 values for mammalian vs. bacterial cells, ranging from ca. 9–69. In fact, for P. aeruginosa and E. coli, MIC against MDR isolates were in the same range, or below, of those previously found for ATCC reference strains (Table 2). For K. pneumoniae, MIC values ranged between 1 and 4 μM, which is remarkable.

Assay [2] relates to preformed biofilms of MDR P. aeruginosa isolates. Kind of assay: Effect on 24 h preformed biofilms (OD600 of planktonic phase). It is filed as cell-based, Pseudomonas aeruginosa. To be noted: 20 × MIC, vs non-treated biofilm. As to the method:
The efficacy of peptide 3.1-PP4 on 24 h preformed biofilms of PA002, PA004, KP004, KP007, and KP010 was also evaluated ([Gomes et al., 2014]). Briefly, biofilms were grown in TSB from a starting inoculum of 1 × 10^6 CFU/mL in 96-well microtiter plates. […] The optical density at 600 nm (OD600) was measured at time 0 and after incubation for 24 h at 37°C. The reduction in the biofilm proliferation was calculated in comparison to the respective non-treated biofilms. Two independent experiments were performed in triplicate.
In the case of control biofilms, the second 24 h growth period occurred in the absence of the peptide. Based on the apparent higher efficiency of peptide 3.1-PP4 to inhibit the formation of K. pneumoniae than P. aeruginosa biofilms, only two MDR isolates of the latter were included in this assay, whereas three MDR K. pneumoniae were tested. Optical density of the planktonic phase, as a measure of biofilm proliferation, was reduced in all peptide-treated biofilms, ranging from 3 to 21% reduction on P. aeruginosa isolates, and from 34 to 56% reduction on K. pneumoniae isolates (Table 4).

Assay [3] concerns preformed biofilm of MDR P. aeruginosa PA004. Nature of the assay: Biofilm metabolic activity (MTT). Format: cell-based, Pseudomonas aeruginosa. To be noted: isolate PA004, 24 h preformed biofilm, 20 × MIC, 24 h at 37°C, absorbance 570 nm. The method, then:
The respective control biofilms were equally formed but in absence of the peptide (only TSB medium was used). Afterward, the bacterial metabolic activity of biofilms was quantified after adding 3-(4,5-dimethylthiazole-2-yl)-2,5-diphenyl tetrazolium bromide (MTT, 0.5 mg/mL – Sigma-Aldrich, St. Louis, MO, United States) for 3 h at 37°C in the dark. DMSO was used to dissolve the formazan crystals formed and the absorbance at 570 nm was measured. Two independent experiments were performed in four replicates.
The influence of the peptide on the metabolic activity of preformed biofilms of one P. aeruginosa (PA004) and three K. pneumoniae (KP004, KP007, and KP010) isolates was also assessed, through a standard MTT assay.

In assay [4] the test system is MDR P. aeruginosa isolates (PA002, PA004, Pa3). Nature of the assay: Inhibition of biofilm formation, crystal violet assay. It is filed as cell-based, Pseudomonas aeruginosa. To be noted: in TSB. As to the method: The ability of peptide 3.1-PP4 to inhibit the biofilm formation by three P. aeruginosa isolates (PA002, PA004, Pa3) and by three K. pneumoniae isolates (KP004, KP007 and KP010) was assessed at concentrations equal to the MIC, 1/2 × MIC and 1/4 × MIC in tryptic soy broth – (TSB – Liofilchem s.r.l., Italy) using the crystal violet assay as reported by [Gomes et al. (2014)]. Two independent experiments were performed in triplicate.
Some of the MDR isolates of P. aeruginosa and K. pneumoniae were randomly selected to form biofilms in the absence (controls) and presence (at MIC, 1/2 × MIC and 1/4 × MIC) of the peptide 3.1-PP4. In this assay, the test compounds were used at sub-inhibitory concentrations, since if they had been present at the MIC or higher concentrations, bacteria would be killed before starting to produce the biofilms.
FIGURE 1 Biofilm biomass quantitation of biofilms formed in the presence of peptide 3.1-PP4. Biofilms of three MDR P. aeruginosa (PA002, Pa3, and PA004) and of three MDR K. pneumoniae (KP004, KP007, and KP010) were formed in the presence of the peptide at three different concentrations, MIC, 1/2 × MIC, and 1/4 × MIC. Control biofilms were grown in absence of the peptide. Two independent experiments were performed in triplicate. Error bars represent SD. […]

Take `CC(C)C[C@H](NC(=O)[C@H](Cc1c[nH]c2ccccc12)NC(=O)[C@H](CCCCN)NC(=O)[C@H](CC(C)C)NC(=O)[C@H](CC(C)C)NC(=O)[C@H](CCCCN)NC(=O)[C@@H](N)CCCCN)C(=O)N[C@@H](CC(C)C)C(=O)N[C@@H](CCCCN)C(=O)N[C@@H](CC(C)C)C(=O)N[C@@H](CC(C)C)C(=O)N[C@@H](CCCCN)C(=O)N[C@H](C(=O)N[C@H](C(=O)N[C@@H](CCCCN)C(=O)N[C@@H](CO)C(N)=O)[C@@H](C)O)[C@@H](C)O` [Peptide 3.1-PP4] (H-KKLLKWLLKLLKTTKS-NH2; N-terminus assumed): the MIC was 2 μg/mL and 1 μM in assay [1] (MDR E. coli isolate EC001); 2 μg/mL and 1 μM in assay [1] (MDR E. coli isolate EC002); 1 µg/mL (≈ 0.515 µM) in assay [1] (MDR E. coli isolate EC003); 4 µg/mL (≈ 2.06 µM) in assay [1] (MDR E. coli isolate Ec1); 2 μg/mL and 1 μM in assay [1] (MDR E. coli isolate Ec2). Moreover, the “% reduction in biofilm proliferation upon treatment” value is given as 2.8% in assay [2] (isolate PA002, 24 h preformed biofilm) and 21% in assay [2] (isolate PA004, 24 h preformed biofilm). Moreover, the “% reduction of metabolic activity in peptide-treated biofilms” value in assay [3] came out at 8.3%. The “biofilm formation (crystal violet absorbance at 595 nm)” value is given as “does not significantly inhibit biofilm formation” in assay [4] (peptide at 1/2 and 1/4 of the MIC, three P. aeruginosa isolates); “no biofilm was actually produced” in assay [4] (peptide at MIC, exception isolate PA002, two experiments in triplicate).

As usually defined, the MIC is the smallest concentration in the dilution series that meets the test's criterion for growth inhibition. Read a low MIC as inhibition by little substance.
